# In patent US20100056623A1, “FUMAGILLOL DERIVATIVES OR METHOD FOR PREPARATION OF FUMAGILLOL DERIVATIVES, AND PHARMACEUTICAL COMPOSITIONS COMPRISING THE SAME” (CHONG KUN DANG PHARMACEUTICAL CORP., priority 2005, published 2010):
# Experiments:
# L5178Y lymphoma = assay: Inhibiting activity on cell proliferation, MTT analysis (L5178Y); type: cell-based, murine; conditions: Mus musculus, 72 h, L5178Y lymphoma cells, 3 days with drug
# Method: (§1) In order to compare the safety index (SI) of CPAE (calf pulmonary artery endothelial cell) with that of HUVEC (human umbilical vein endothelial cell), L5178Y lymphoma that was isolated from murine thymus was used. The safety index was defined as IC50 ratio of L5178Y against CPAE (IC50L5178Y/IC50CPAE). All cell lines, which had been kept in liquid nitrogen tank, were used after being thawed and subcultured 2˜3 times in T-flask. CPAE, HUVEC and L5178Y were cultured in MEM culture medium (20% FBS, 50˜100 μg/ml ECGS, 0.15% baking soda, 0.05 mg/ml gentamicin), M199 culture medium (20% FBS, 0.22% baking soda, 100 μg/ml heparin, 3 ng/ml bFGF, 0.05 mg/ml gentamicin) and RPMI 1640 culture medium (10% FBS, 0.2% baking soda, 0.05 mg/ml gentamicin), respectively, under the condition of 37° C. and 5% CO2.
# (§2) The drug was prepared by being gradationally diluted to two or ten times by using PBS, 20 μl of the solution was added to each well of 96 well plate in triplicate. The cell, which is being incubated, was treated with trypsin to give cell suspension. The number of cell thereafter was counted. And 180 μl of the solution was inoculated to each well and cultured.
# The tumor cell was cultured with drugs for 3 days and then 50 μl of MTT (3-(4,5-dimethylthiazole-2-yl)-2,5-diphenyl tetrazolium bromide, Sigma Chemical Co.) solution (2.5 mg/ml in PBS) was added thereto. And it was further cultured for 4 hours at 37° C. Culture medium was removed carefully. And after dissolving formazan crystal by adding 150 μl of DMSO, the absorbance at 570 nm was determined.
# [1] = tested on: CPAE (calf pulmonary artery endothelial cell); assay: Inhibiting activity on cell proliferation, SRB analysis (CPAE); type: cell-based; conditions: for IC50: Bos taurus, Endothelial cell, 72 h, CPAE cells, 3 days with drug, SRB, read-out: IC50 (nM) CAPE; for Selectivity Index (L5178Y/CAPE): IC50 L5178Y / IC50 CPAE
# Method: as §1, §2
# The cell was cultured with drugs for 3 days and then 50 μl of 50% TCA was added thereto (final concentration 10%). Subsequently the cell was fixed by being left alone at 4° C. for 1 hour. The well was washed 4 times by distilled water and then dried. After that 100 μl of SRB (Sulforhodamine B, Sigma Chemical Co.) solution (0.4% w/v in 1% acetic acid) was added thereto and then it was left alone at ordinary temperature for 30 minutes. Thereafter the well was washed 4 times by 1% acetic acid and dried. And then after adding 200 μl of 10 mM tris buffer, the absorbance at 570 nm was measured by automatic microplate reader (Model: Elx 808, Bio-Tek Instrument, INC). The viability was calculated from the ratio of the absorbance of the control to which drugs were not added and the well to which drugs were added.
# [2] = Chemical stability test (HPLC purity); conditions: for change of purity (in words) / chemical stability compared to known compounds / 1 month Other peaks (%) / 1 month Parent peak (%): 1 month at 40±2° C.; for change of purity (in words) / chemical stability compared to known compounds / 1 month Other peaks (%) / 1 month Parent peak (%) / change of purity (%): 75±5% relative humidity; for 1 month Other peaks (%) / 1 month Parent peak (%) / Initial Other peaks (%) / Initial Parent peak (%): HPLC; for 1 month Other peaks (%) / 1 month Parent peak (%): air-tight vessel; for change of purity (%): initial vs 1 month at 40±2° C.
# Method: Each compound of the present invention was kept in an air-tight vessel for 1 month at 40±2° C. and 75±5% of relative humidity. Thereafter the HPLC purity test was executed.
# 25 mL of the solution was precisely taken, and poured into 100 mL volumetric flask. Acetonitrile/20 mM ammonium acetate aqueous solution (50:50) was added thereto to be the total volume of 100 ml. The solution was filtrated, and the filtrate was used as a test liquid.
# (2) Operational Condition of Instrument. • Column: Kromasil®C18 (UG 100 Å, 5 μm, 4.6 mm Φ×250 mm) • Column temperature: 30° C. • Mobil phase: 20 mM ammonium acetate (pH 4.2) buffer:acetonitrile (55:45) • Injection volume: 20 μL • Flow rate: 1.2 mL/min • Detector: UV light-absorption Spectrophotometer (detection wavelength: 306 nm)
# Solubility test = type: physicochemical; conditions: ordinary temperature
# Method: To a constant amount (400 mg) of each compounds of present invention, a constant amount of demineralized water, methanol and ethanol were added separately, and the solution was stirred at ordinary temperature.
IC50 (L5178Y lymphoma),Compound,IC50 [1],Selectivity Index (L5178Y/CAPE) [1],change of purity (in words) [2],chemical stability compared to known compounds [2],1 month Other peaks (%) [2],1 month Parent peak (%) [2],Initial Other peaks (%) [2],Initial Parent peak (%) [2],change of purity (%) [2],"The amount of solvent to dissolve 1 g of the compounds (ml), demineralized water (Solubility test)","The amount of solvent to dissolve 1 g of the compounds (ml), ethanol (Solubility test)","The amount of solvent to dissolve 1 g of the compounds (ml), methanol (Solubility test)"
34600 nM,"COc1cc(/C=C/C(=O)O[C@@H]2CC[C@]3(CO3)[C@@H]([C@@]3(C)O[C@@H]3CC=C(C)C)[C@@H]2OC)cc(OC)c1OCCOCCO [Example 13, O-(3,5-dimethoxy-4-(2-hydroxyethoxyethoxy)cinnamoyl)fumagillol]",0.17 nM,2.03 × 10^5,–,–,–,–,–,–,–,–,–,–
50100 nM,"COc1cc(/C=C/C(=O)O[C@@H]2CC[C@]3(CO3)[C@@H]([C@@]3(C)O[C@@H]3CC=C(C)C)[C@@H]2OC)ccc1OCCOCCO [Example 14, O-(4-(2-hydroxyethoxyethoxy)-3-methoxycinnamoyl)fumagillol]",0.26 nM,1.93 × 10^5,–,–,–,–,–,–,–,–,–,–
41900 nM,"COc1ccc(/C=C/C(=O)O[C@@H]2CC[C@]3(CO3)[C@@H]([C@@]3(C)O[C@@H]3CC=C(C)C)[C@@H]2OC)cc1OCCOCCO [Example 15, O-(3-(2-hydroxyethoxyethoxy)-4-methoxycinnamoyl)fumagillol]",0.4 nM,1.05 × 10^5,–,–,–,–,–,–,–,–,–,–

# The remaining lines, values behind:
Compound,IC50 (L5178Y lymphoma),IC50 [1],Selectivity Index (L5178Y/CAPE) [1],change of purity (in words) [2],chemical stability compared to known compounds [2],1 month Other peaks (%) [2],1 month Parent peak (%) [2],Initial Other peaks (%) [2],Initial Parent peak (%) [2],change of purity (%) [2],"The amount of solvent to dissolve 1 g of the compounds (ml), demineralized water (Solubility test)","The amount of solvent to dissolve 1 g of the compounds (ml), ethanol (Solubility test)","The amount of solvent to dissolve 1 g of the compounds (ml), methanol (Solubility test)"
"CO[C@@H]1[C@H](OC(=O)/C=C/c2ccc(OCCCO)cc2)CC[C@]2(CO2)[C@H]1[C@@]1(C)O[C@@H]1CC=C(C)C [Example 19, O-(4-(3-hydroxypropoxy)cinnamoyl)fumagillol]",24900 nM,0.017 nM,1.46 × 10^6,–,–,–,–,–,–,–,–,–,–
"CO[C@@H]1[C@H](OC(=O)/C=C/c2ccc(OCCCO)c(C#N)c2)CC[C@]2(CO2)[C@H]1[C@@]1(C)O[C@@H]1CC=C(C)C [Example 20, O-(3-cyano-4-(3-hydroxypropoxy)cinnamoyl)fumagillol]",20500 nM,0.046 nM,4.45 × 10^5,–,–,–,–,–,–,–,–,–,–
"CO[C@@H]1[C@H](OC(=O)/C=C/c2ccc(OCCCCO)cc2)CC[C@]2(CO2)[C@H]1[C@@]1(C)O[C@@H]1CC=C(C)C [Example 21, O-(4-(4-hydroxybutoxy)cinnamoyl)fumagillol]",25800 nM,0.029 nM,8.90 × 10^5,hardly showed a change of purity,"more excellent chemical stability than TNP-470, CKD-732 and CKD-731",1.1%,98.9%,1.0%,99.0%,0.1%,150 mL,97 mL,70 mL
"CO[C@@H]1[C@H](OC(=O)/C=C/c2ccc(OCCCCO)c(C)c2)CC[C@]2(CO2)[C@H]1[C@@]1(C)O[C@@H]1CC=C(C)C [Example 22, O-(3-methyl-4-(4-hydroxybutoxy)cinnamoyl)fumagillol]",32500 nM,0.048 nM,6.76 × 10^5,–,–,–,–,–,–,–,–,–,–
"CO[C@@H]1[C@H](OC(=O)/C=C/c2ccc(OCCOCCOCCO)cc2)CC[C@]2(CO2)[C@H]1[C@@]1(C)O[C@@H]1CC=C(C)C [Example 27, O-(4-(2-hydroxyethoxyethoxyethoxy)cinnamoyl)fumagillol]",10500 nM,0.089 nM,1.18 × 10^5,hardly showed a change of purity,"more excellent chemical stability than TNP-470, CKD-732 and CKD-731",1.6%,98.4%,1.6%,98.4%,0%,120 mL,50 mL,30 mL
